Data as given in article PMC6429200, “Synthesis and Broad Antiviral Activity of Novel 2-aryl-isoindolin-1-ones towards Diverse Enterovirus A71 Clinical Isolates” (Molecules, 2019).
Like-named read-outs stand apart in the source and are kept apart here.

How the values were obtained:
[1] = tested on: EV-A71 strain ShenZhen98 (SZ98); assay: CPE inhibition assay for anti-EV-A71 in Vero cells, Shenzhen98 strain; type: cell-based, Enterovirus 71 (EV-A71); conditions: for Shenzhen98 SI: CC50/EC50; for EC50: Enterovirus A, EVA71, Vero cells, 100TCID50, 48 h
Procedure: (§1) An in-vitro antiviral assay was established using the Africa monkey kidney cell line Vero which was infected with different EV-A71 clinical isolates (BrCr, H, Shenzhen98 and Jiangsu52). A total of 24 synthetic compounds were initially screened in such an assay to determine their inhibitory effect on virus replication at 3-fold diluted concentrations serial (400~0.18 μM). The 50% effective concentration (EC50) of each compound was calculated according to its inhibitory rate values with the Reed–Muench method. The 50% cytotoxic concentration (CC50) was defined as the concentration that inhibited 50% cellular growth in comparison with the controls. The selectivity index (SI) was calculated as CC50/EC50. […] Generally, the EV-A71 H strain was less sensitive to most of the active compounds as compared to the other virus strains.
(§2) EV-A71 strain ShenZhen98 (SZ98) was isolated from the throat swab sample of an HFMD case which occurred in 1998 in China. This was kindly provided by Dr. Qi Jin, Institute of Pathogen Biology, Chinese Academy of Medical Science and Peking Union Medical School, Beijing, China. EV-A71 strains BrCr (VR-1775) and H (VR-1432) were purchased from the ATCC. The EV-A71 strain JS52 was a kind gift from Dr. Xiangzhong Ye, Beijing Wantai Biological Pharmacy Enterprise Co., Ltd. EV-A71 were all passaged in Vero cells.
(§3) The anti-EV-A71 activity of compounds was determined by the CPE inhibition method. Briefly, cells (3 × 10^4 cells/well) were plated into 96-well culture plates for incubation for 24 h. The medium was then removed and cells were infected with EV-A71 with 100TCID50 (50% tissue culture infective doses) in serum-free medium for 1 h at 37 °C. Then, the unbound viruses were removed and various concentrations of compounds were supplemented and incubated for another 48 h. The EC50 was determined by the Reed–Muench method. The selectivity index was calculated as the ratio of CC50/EC50 [15].

EV-A71 strain H = assay: CPE inhibition assay for anti-EV-A71 in Vero cells, H strain; type: cell-based, Enterovirus 71 (EV-A71); conditions: for H SI: CC50/EC50; for EC50: Enterovirus A, EVA71, Vero cells, 100TCID50, 48 h
Procedure: as §1, §2, §3

[2] = Cytotoxicity assay (CPE) on Vero cells; type: cell-based; conditions: African green monkey
Procedure: as §1
African green monkey kidney (Vero) cells were purchased from the American Type Culture Collection (ATCC) and were cultured in minimum essential medium (MEM) supplemented with 10% fetal bovine serum (FBS) (GIBCO) and antibiotics (100 U/mL penicillin and […] streptomycin) at 37 °C in a 5% CO2 incubator.
The cytotoxic effects of compounds on Vero cells were detected by the cytopathic effect (CPE) assay. Briefly, cells (3 × 10^4 cells/well) were seeded into 96-well culture plates and incubated overnight. Then, the medium was removed and different concentrations of compounds were applied in triplicate. After 3 days of incubation, the CC50 was defined as the concentration that inhibited 50% cellular growth in comparison with the untreated controls, as calculated by the Reed–Muench method.

EV-A71 strain BrCr = assay: CPE inhibition assay for anti-EV-A71 in Vero cells, BrCr strain; type: cell-based, Enterovirus 71 (EV-A71); conditions: for BrCr SI: CC50/EC50; for EC50: Enterovirus A, EVA71, Vero cells, 100TCID50, 48 h
Procedure: as §1, §2, §3

[3] = tested on: EV-A71 strain Jiangsu52 (JS52); assay: CPE inhibition assay for anti-EV-A71 in Vero cells, Jiangsu52 strain; type: cell-based, Enterovirus 71 (EV-A71); conditions: for Jiangsu52 SI: CC50/EC50; for EC50: Enterovirus A, EVA71, Vero cells, 100TCID50, 48 h
Procedure: as §1, §2, §3

[4] = tested on: four EV-A71 strains (BrCr, H, Shenzhen98, Jiangsu52); assay: CPE inhibition assay, summary over four EV-A71 strains; type: cell-based, Enterovirus 71 (EV-A71); conditions: for EC50: Enterovirus A, EVA71, Vero, read-out: EC50 towards four EV-A71 strains
Procedure: as §1, §3

EV71 = tested on: EV71; parameters: method as in PMID 23519203; conditions: cited from earlier work
[5] = Vero cells, 3 days of incubation, Reed–Muench, read-out: CC50

Structure (SMILES)	Shenzhen98 SI [1]	EC50 [1]	H SI (EV-A71 strain H)	EC50 (EV-A71 strain H)	CC50 at 3 days [2, 5]	BrCr SI (EV-A71 strain BrCr)	EC50 (EV-A71 strain BrCr)	Jiangsu52 SI [3]	EC50 [3]	EC50 [4]	SI towards four EV-A71 strains ([4]; CC50/EC50, range over four strains)	EC50 fold higher than pirodavir ([4]; relative to reference compound pirodavir)	fold loss in activity ([4]; against four in vitro models, relative to A3)	CC50 at 3 days [2]	SI (EV71; Figure 1)	IC50 (EV71; Figure 1, multiple virus strains, read-out: Anti-EV71 IC50)	anti-EV-A71 activity (EV71; against multiple virus strains)
Cc1ccc(N2Cc3cc(N)ccc3C2=O)cc1 [Compound 6, 5-amino-2-(p-tolyl)isoindolin-1-one]	86	2 ± 0.25 µM	82	2.11 ± 0.23 µM	173 ± 34 µM	91	1.89 ± 0.32 µM	91	1.89 ± 0.32 µM	< 10 µM							
O=C1c2ccccc2CN1c1ccc(Br)cc1 [Compound A4, 2-(4-bromophenyl)isoindolin-1-one]	98	1.76 ± 0.15 µM	98	1.76 ± 0.19 µM	173 ± 34 µM	140	1.23 ± 0.28 µM	131	1.32 ± 0.22 µM	1.23 to 1.76 µM	98–199	2–4 fold					
COc1ccc(N2Cc3ccccc3C2=O)cc1 [Compound A7, 2-(4-methoxyphenyl)isoindolin-1-one]	44	7.27 ± 0.86 µM	34	9.35 ± 1.44 µM	318 ± 54.5 µM	44	7.27 ± 0.86 µM	40	7.92 ± 0.86 µM	< 10 µM							
CCCNc1ccc2c(c1)C(=O)N(c1ccc(OC)cc1)C2 [Compound B1, 2-(4-methoxyphenyl)-6-(propylamino)isoindolin-1-one]	43	1.59 ± 0.35 µM	13	5.41 ± 0.63 µM	68.4 ± 5.72 µM	43	1.59 ± 0.35 µM	43	1.59 ± 0.43 µM	< 10 µM							
O=C1c2cc(-c3ccccc3)ccc2CN1c1ccc(Cl)cc1 [Compound D1]	/ (/ represents selectivity index (SI) value of less than 10)		/ (/ represents selectivity index (SI) value of less than 10)	66.7 µM	115 µM	/ (/ represents selectivity index (SI) value of less than 10)		2	56.5 ± 14.5 µM								
O=C1c2cc(Nc3ccccc3)ccc2CN1c1ccc(Cl)cc1 [Compound D2]	/ (/ represents selectivity index (SI) value of less than 10)	19.8 ± 3.4 µM	/ (/ represents selectivity index (SI) value of less than 10)	19.6 ± 3.77 µM	115 µM	/ (/ represents selectivity index (SI) value of less than 10)	19.6 ± 3.77 µM	/ (/ represents selectivity index (SI) value of less than 10)	15.1 ± 3.23 µM				10 fold				
CN1CCN(c2ccc3c(c2)C(=O)N(c2ccc(Cl)cc2)C3)CC1 [Compound D3, 6-(4-methylpiperazin)-2-(4-chlorophenyl)-isoindolin-1-one]	11	3.73 ± 0.78 µM	20	2.09 ± 0.54 µM		16	2.71 ± 0.35 µM	32	1.29 ± 0.33 µM	< 10 µM				42.4 ± 5.47 µM			
COc1ccc(C(=O)Nc2ccc(Br)cc2)cc1N [N-pheylbenzoamide hit, 3-amino-N-(4-bromophenyl)-4-methoxybenzamide]															51-110	5.7 to 12 µM	moderate anti-EV-A71 activity
CCOC(=O)c1ccc(OCCC2CCN(c3ccc(C)nn3)CC2)cc1 [pirodavir, reference compound]	67	0.5 ± 0.06 µM	44	0.76 ± 0.09 µM	33.3 µM	88	0.38 ± 0.04 µM	54	0.62 ± 0.1 µM	0.38 to 0.76 µM							
